Laboratory results reported in patent US11382919B2 (priority 2017, dated 2022).

How the values were obtained:
HSV-2(G) = test: Viral plaque assay with HSV-2(G); assay type: cell-based; conditions: 5 μM R5421 pretreatment, drug added back to overlay, plaques 48 h post-infection
HSV-1(VP26GFP) = assay type: cell-based; conditions: Vk2E6/E7 cells, R5421 pretreatment
HSV-2(333ZAG) = assay type: cell-based; conditions: Vk2E6/E7 cells, R5421 pretreatment
[1] = test system: phosphatidylserines (PtdS), Akt, PLSCR1 at the outer leaflet of the plasma membrane; test: Confocal imaging of HSV-induced externalization of PtdS, Akt and PLSCR1 in non-permeabilized cells; assay type: cell-based, human
CaSki and HaCAT cells = conditions: 3 independent experiments, FIG. 13
HSV-1 = conditions: sporadic fatal encephalitis; optimal intravenous acyclovir therapy; cited from earlier work
PLSCR1 = test: Ionomycin activation of PLSCR1 (microscopy, co-immunoprecipitation/anti-phosphotyrosine blot); assay type: cell-based, human; conditions: CaSki cells; 1 μM ionomycin; 15 minutes; immunoblotting
Procedure: (§1) FIG. 9A-9E. Ionomycin activates phospholipid scramblase leading to externalization of phosphatidylserines and Akt. (A). CaSki cells were treated with ionomycin (1 μM), HSV-2(G) (MOI 5 pfu/cell) or DMSO (0.1%) for 15 minutes and then fixed and stained with antibodies to PLSCR1 (polyclonal rabbit and Alexa 555, red), PtdS (monoclonal antibody and Alexa555, red), or Akt (polyclonal rabbit and secondary Alexa488, green) as indicated. Nuclei were stained blue with DAPI. Images are representative of results obtained from 2-3 independent experiments; bar=10 μm. Five fields were scanned and mean fluorescence intensity (MFI) per cell calculated using ImageJ software (NIH); results are mean+SEM and the asterisks indicate significant differences by ANOVA compared to DMSO control treated cells. (B). CaSki cells were treated as in A for 15 minutes and then cell lysates were harvested, incubated with a goat anti-PLSCR1 antibody and immune complexes precipitated with protein G-agarose and analyzed by Western blotting with a mouse anti-phosphotyrosine mAb (PY20) or mouse anti-PLSCR1 Ab. […] (C). […] Cell surface proteins were biotinylated and precipitated with streptavidin magnetic beads and the pellet analyzed by immunoblotting with rabbit anti-pAktThr^308 or mouse anti-pAktS^473 1 Abs. In parallel, cellular lysates were analyzed by immunoblotting for total cellular Akt (rabbit polyclonal Ab). […]

Akt = test: Ionomycin-induced Akt phosphorylation (biotinylation of cell surface proteins, immunoblot); assay type: cell-based, human; conditions: CaSki cells; 1 μM ionomycin; 5 or 15 minutes; immunoblotting
Procedure: as §1

O=C(O)C(=O)O [R5421, ethanedioic acid]
reduction of HSV-2 plaque formation relative to DMSO treated controls (HSV-2(G); CaSki cells): 88±7%
reduction of HSV-2 plaque formation relative to DMSO treated controls (HSV-2(G); HaCAT cells): 71.7±7%
reduction of HSV-2 plaque formation relative to DMSO treated controls (HSV-2(G); VK2E6/E7 cells): 95±6%
infection, percentage of GFP positive cells 16 h pi (HSV-1(VP26GFP)): reduced
infection, percentage of GFP positive cells 16 h pi (HSV-2(333ZAG)): reduced
PtdS and Akt externalization [1]: prevented PtdS and Akt externalization
viral induced externalization of PtdS ([1]; CaSki cells, 5 μM R5421 15 min pretreatment, […]): prevented the viral induced externalization of PtdS
PtdS and Akt at the outer leaflet ([1]; R5421 added 30 min pi, CaSki, […]): persistence of PtdS and Akt at the outer leaflet for up to 4 h pi

CC(=O)OCOC(=O)CN(CC(=O)OCOC(C)=O)c1ccccc1OCCOc1ccccc1N(CC(=O)OCOC(C)=O)CC(=O)OCOC(C)=O [BAPTA-AM]
number of cells with detectable PtdS, Akt, or PLSCR1 at the outer leaflet ([1]; 100 μM pretreatment, CaSki, […]): significantly reduced

Nonoxynol-9 [N9]
cytotoxicity, cell viability as percentage of control (CaSki and HaCAT cells): kills cells

Nc1nc2c(ncn2COCCO)c(=O)[nH]1 [acyclovir, 9-[2-hydroxymethyl]guanine]
mortality (HSV-1): 14-19%
survivors who resume a normal lifestyle (HSV-1): < 50%

C[C@H](CCC(=O)O)C[C@H](C)C[C@H](C)C(=O)/C=C(\O)[C@H](C)C[C@H](C)C/C=C/[C@@H](C)[C@@H](O)[C@@H](C)[C@@H](O)C[C@@H]1CC[C@@](C)([C@H]2CC[C@@](C)([C@@H](C)O)O2)O1 [ionomycin]
phosphorylated PLSCR1 (PLSCR1): an increase in phosphorylated PLSCR1
phosphorylated Akt (Akt): phosphorylated Akt (both at the threonine 308 and serine 473 sites)
